The values that follow are results of earlier work, collected in US12508236B2, “Solid nanoparticle with inorganic coating” (Nanexa AB, priority 2013, dated 2025).

Molecules are shown by their SMILES. Entries after “also recorded” stand apart in the source; their conditions may differ.

As for `CCOC(=O)C1=C(C)NC(C)=C(C(=O)OC)C1c1cccc(Cl)c1Cl` (racemic) [Felodipine, (RS)-3-ethyl 5-methyl 4-(2,3-dichlorophenyl)-2,6-dimethyl-1,4-dihydropyridine-3,5-dicarboxylate], the water solubility result is “very low water solubility”. With `CC(=O)Nc1ccc(O)cc1` [Paracetamol, N-(4-hydroxifenyl)acetamid], the water solubility entry is “high water solubility; also recorded: very water soluble”. For the same compound, the solubility in heptane result (heptane) is on record as “low solubility”.
